ChEMBL document CHEMBL3421569, “Stemistry: the control of stem cells in situ using chemistry” (2015)

Columns and labels:
[1] = Induction of human ESC differentiation assessed as appearance of pigmented area measured over 8 weeks relative to control; assay type: functional, Embryonic stem cell
[2] = Induction of human ESC differentiation assessed as increase in microphthalmia-associated transcription factor expression measured over 8 weeks relative to total pigmented area; assay type: functional, Embryonic stem cell

## NC(=O)c1cccnc1 [NIACINAMIDE]
[1]
  Activity: >70%
[2]
  Activity: 5%
